Laboratory results reported in patent US20240294498A1, “FACTOR XIIA INHIBITORS” (Lunac Therapeutics Ltd, priority 2021, published 2024).

Assays:
Assay type in all cases: biochemical
FXIIa = target: T1, FXIIa (Homo sapiens, UniProt P00748); test: Determination of Factor XIIa inhibition (chromogenic substrate S-2302); details: human FXIIa alpha, Ki category
T1 construct: FXIIa alpha
T1 sequence (P00748 373-615 limits assumed): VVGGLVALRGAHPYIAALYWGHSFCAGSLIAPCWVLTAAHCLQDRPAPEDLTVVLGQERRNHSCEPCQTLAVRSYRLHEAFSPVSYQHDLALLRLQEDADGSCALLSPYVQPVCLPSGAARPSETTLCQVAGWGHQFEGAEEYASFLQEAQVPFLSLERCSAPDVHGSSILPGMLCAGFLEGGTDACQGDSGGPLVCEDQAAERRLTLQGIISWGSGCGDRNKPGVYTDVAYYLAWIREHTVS
T1 sequence (P00748 20-372 partner limits assumed): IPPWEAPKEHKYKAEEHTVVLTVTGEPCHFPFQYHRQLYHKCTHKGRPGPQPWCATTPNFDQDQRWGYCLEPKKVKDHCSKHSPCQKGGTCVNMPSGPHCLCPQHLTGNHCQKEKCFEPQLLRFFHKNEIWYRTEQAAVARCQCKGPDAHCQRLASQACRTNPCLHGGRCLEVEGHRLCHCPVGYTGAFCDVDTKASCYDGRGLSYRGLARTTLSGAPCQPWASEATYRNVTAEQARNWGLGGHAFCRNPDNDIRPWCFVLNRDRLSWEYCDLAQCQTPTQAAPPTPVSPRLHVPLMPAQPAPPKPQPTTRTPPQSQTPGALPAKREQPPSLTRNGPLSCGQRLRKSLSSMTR
Method in brief: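 Compound preincubated with 10 nM FXIIa for 10 min at 37° C in 50 mM Tris, 137 mM NaCl, pH 7.4, 5% DMSO, top concentration 500 μM; S-2302 added at Km. pNA release followed at 405 nm for 3 h; IC50 from initial rates, converted to Ki via Ki = IC50/(1+[S]/Km).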

FXa = FXa (Homo sapiens, UniProt P00742); test: Determination of selectivity: FXa inhibition (chromogenic substrate S2765); details: fold selectivity for FXIIa over FXa (human); category
Chain of FXa (P00742 235-488 limits assumed): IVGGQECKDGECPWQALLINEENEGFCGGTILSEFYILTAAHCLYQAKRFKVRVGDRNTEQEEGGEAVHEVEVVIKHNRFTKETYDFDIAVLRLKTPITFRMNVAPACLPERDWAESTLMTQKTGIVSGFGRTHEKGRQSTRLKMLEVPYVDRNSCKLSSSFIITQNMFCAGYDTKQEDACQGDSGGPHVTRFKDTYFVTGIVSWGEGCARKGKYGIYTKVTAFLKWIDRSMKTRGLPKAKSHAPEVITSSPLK
Chain of FXa (P00742 41-179 partner limits assumed): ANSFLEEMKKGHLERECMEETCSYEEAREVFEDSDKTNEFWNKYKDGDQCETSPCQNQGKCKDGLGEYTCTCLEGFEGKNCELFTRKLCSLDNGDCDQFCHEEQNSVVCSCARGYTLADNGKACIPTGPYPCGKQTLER
Method in brief: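 FXa (5 nM) preincubated with increasing compound (top 500 μM) for 10 mins at 37° C in 50 mM Tris, 137 mM NaCl pH 7.4, 5% DMSO, then S2765 added at its KM. Absorbance at 405 nm followed kinetically for 3 hours; IC50 from initial rates, converted to Ki by Cheng-Prusoff.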

thrombin = target: T2, thrombin (Homo sapiens, UniProt P00734); test: Determination of selectivity: thrombin inhibition (chromogenic substrate GPR); details: fold selectivity for FXIIa over thrombin (human); category
T2 construct: FXa (5 nM) and thrombin (5 nM)
Method in brief: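 Thrombin (5 nM) preincubated with increasing compound concentrations (top 500 μM, 5% DMSO) 10 min at 37 °C in 50 mM Tris, 137 mM NaCl pH 7.4, then GPR chromogenic substrate at its KM. pNA release read kinetically at 405 nm for 3 h at 37 °C. IC50 from initial rates, converted to Ki via Cheng–Prusoff.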

Ki (FXIIa) [nM] | FXa (human)/FXIIa alpha (human) (FXa) | Compound | Thrombin (human)/FXIIa alpha (human) (thrombin)
< 200 | ∘∘∘ | CN(CCN1CCCC1)C(=O)[C@H]1CCCN[C@H]1C(=O)N1C[C@@H](C(F)(F)F)C[C@H]1C(=O)NCc1ccc2c(cnn2C)c1 [Example M06085, (2R,3S)-N-methyl-2-((2S,4S)-2-(((1-methyl-1H-indazol-5-yl)methyl)carbamoyl)-4-(trifluoromethyl)pyrrolidine-1-carbonyl)-N-(2-(pyrrolidin-1-yl)ethyl)piperidine-3-carboxamide] | +++ (fold selectivity values greater than 100)
200 to 800 | ∘∘∘ | Cc1ccc(C[C@@H]2C[C@@H](C(=O)NCCCn3ccnc3)N(C(=O)[C@@H]3NCCC[C@@H]3C(=O)N3CCC[C@@H]3C(F)(F)F)C2)cc1 [Example M06089] | +++ (fold selectivity values greater than 100)
< 200 | ∘∘∘ | Cc1ccc(C[C@@H]2C[C@@H](C(=O)NCc3ccc4c(cnn4C)c3)N(C(=O)[C@@H]3NCCC[C@@H]3C(=O)N(C)CCN3CC(F)C3)C2)cc1 [Example M06099, (2R,3S)-N-(2-(3-fluoroazetidin-1-yl)ethyl)-N-methyl-2-((2S,4R)-2-(((1-methyl-1H-indazol-5-yl)methyl)carbamoyl)-4-(4-methylbenzyl)pyrrolidine-1-carbonyl)piperidine-3-carboxamide] | +++ (fold selectivity values greater than 100)
< 200 | ∘∘∘ | Cc1ccc(C[C@@H]2C[C@@H](C(=O)NCc3ccc4c(cnn4C)c3)N(C(=O)[C@@H]3NCCC[C@@H]3C(=O)N(C)CCN3CC[C@H](F)C3)C2)cc1 [Example M06109, (2R,3S)-N-(2-((S)-3-fluoropyrrolidin-1-yl)ethyl)-N-methyl-2-((2S,4R)-2-(((1-methyl-1H-indazol-5-yl)methyl)carbamoyl)-4-(4-methylbenzyl)pyrrolidine-1-carbonyl)piperidine-3-carboxamide] | +++ (fold selectivity values greater than 100)
< 200 | ∘∘∘ | Cc1ccc(C[C@@H]2C[C@@H](C(=O)NCc3ccc4c(cnn4C)c3)N(C(=O)[C@@H]3NCCC[C@@H]3C(=O)N(C)C3CCN(C4CC4)CC3)C2)cc1 [Example M06112, (2R,3S)-N-(1-cyclopropylpiperidin-4-yl)-N-methyl-2-((2S,4R)-2-(((1-methyl-1H-indazol-5-yl)methyl)carbamoyl)-4-(4-methylbenzyl)pyrrolidine-1-carbonyl)piperidine-3-carboxamide] | +++ (fold selectivity values greater than 100)
< 200 | ∘∘∘ | CO[C@H]1CCN(CCN(C)C(=O)[C@H]2CCCN[C@H]2C(=O)N2C[C@H](Cc3ccc(C)cc3)C[C@H]2C(=O)NCc2ccc3c(cnn3C)c2)C1 [Example M06128, (2R,3S)-N-(2-((S)-3-methoxypyrrolidin-1-yl)ethyl)-N-methyl-2-((2S,4R)-2-(((1-methyl-1H-indazol-5-yl)methyl)carbamoyl)-4-(4-methylbenzyl)pyrrolidine-1-carbonyl)piperidine-3-carboxamide] | +++ (fold selectivity values greater than 100)
< 200 | ∘∘∘ | Cc1ccc(C[C@@H]2C[C@@H](C(=O)NCc3ccc4c(cnn4C)c3)N(C(=O)[C@@H]3NCCC[C@@H]3C(=O)N(C)CCN3CC(F)(F)C3)C2)cc1 [Example M06129, (2R,3S)-N-(2-(3,3-difluoroazetidin-1-yl)ethyl)-N-methyl-2-((2S,4R)-2-(((1-methyl-1H-indazol-5-yl)methyl)carbamoyl)-4-(4-methylbenzyl)pyrrolidine-1-carbonyl)piperidine-3-carboxamide] | +++ (fold selectivity values greater than 100)
< 200 | ∘∘∘ | Cc1ccc(C[C@@H]2C[C@@H](C(=O)NCc3ccc4c(cnn4C)c3)N(C(=O)[C@@H]3NCCC[C@@H]3C(=O)N(C)CCN(C)CCF)C2)cc1 [Example M06131, (2R,3S)-N-(2-((2-fluoroethyl)(methyl)amino)ethyl)-N-methyl-2-((2S,4R)-2-(((1-methyl-1H-indazol-5-yl)methyl)carbamoyl)-4-(4-methylbenzyl)pyrrolidine-1-carbonyl)piperidine-3-carboxamide] | +++ (fold selectivity values greater than 100)
